From PMC7521880 (European Journal of Medicinal Chemistry, 2020) come the findings set out here.

The assay concerns varicella-zoster virus (VZV, TK+ Oka strain). It is filed as cell-based. Particulars: VZV in HEL cells; strain not specified.

In the case of `CCCCCc1ccc(-c2oc3nc(=O)n([C@H]4C[C@H](OC(C)=O)[C@@H](COC(C)=O)O4)cc3c2C#CCCO)cc1` [Compound 7b, 3-(3′,5′-di-O-acetyl-2′-deoxy-β-D-ribofuranosyl)-5-(4-hydroxybut-1-yn-1-yl)-6-(4-pentylphenyl)-2,3-dihydrofuro[2,3-d]pyrimidin-2-one], the “Selectivity index (SI), ratio CC50 for HEL cells / EC50” value is on record as ≤ 1. Consider `CC(=O)OC[C@H]1O[C@@H](n2cc3c(C#Cc4ccc(C)cc4)c(-c4ccc(C)cc4)oc3nc2=O)C[C@@H]1OC(C)=O` [Compound 6h, 3-(3′,5′-di-O-acetyl-2′-deoxy-β-D-ribofuranosyl)-6-(4-methylphenyl)-5-((4-methylphenyl)ethynyl)-2,3-dihydrofuro[2,3-d]pyrimidin-2-one], for which the “Selectivity index (SI), ratio CC50 for HEL cells / EC50” value is on record as ≤ 1.

`CCCCCc1ccc(-c2oc3nc(=O)n([C@H]4C[C@H](OC(C)=O)[C@@H](COC(C)=O)O4)cc3c2C#CCO)cc1` [Compound 7a, 3-(3′,5′-di-O-acetyl-2′-deoxy-β-D-ribofuranosyl)-5-(3-hydroxyprop-1-yn-1-yl)-6-(4-pentylphenyl)-2,3-dihydrofuro[2,3-d]pyrimidin-2-one]: the “Selectivity index (SI), ratio CC50 for HEL cells / EC50” value is ≤ 1. The result for `CC(=O)OC[C@H]1O[C@@H](n2cc3c(C#CC4(O)c5ccccc5-c5ccccc54)c(-c4ccc(C)cc4)oc3nc2=O)C[C@@H]1OC(C)=O` [Compound 6c, 3-(3′,5′-di-O-acetyl-2′-deoxy-β-D-ribofuranosyl)-5-((9-hydroxy-9H-fluoren-9-yl)ethynyl)-6-(4-methylphenyl)-2,3-dihydrofuro[2,3-d]pyrimidin-2-one] reads ≤ 1.
